Laboratory results as given in ChEMBL document CHEMBL3526017, “Predicting the drug interaction potential of AMG 853, a dual antagonist of the D-prostanoid and chemoattractant receptor-homologous molecule expressed on T helper 2 cells receptors” (Drug Metab Dispos, 2012).
pKi: −log10 of the molar value.

What was measured:
[1] = biological target: T1, Cytochrome P450 3A4 (Homo sapiens, UniProt P08684); test: Drug metabolism assessed as recombinant CYP3A4 (unknown origin)-mediated compound formation treated with AMG 853 at 10 uM after 30 mins by LC-MS/MS analysis; assay type: ADME; settings: recombinant enzyme, 0.5 h
T1 sequence (P08684 whole entry): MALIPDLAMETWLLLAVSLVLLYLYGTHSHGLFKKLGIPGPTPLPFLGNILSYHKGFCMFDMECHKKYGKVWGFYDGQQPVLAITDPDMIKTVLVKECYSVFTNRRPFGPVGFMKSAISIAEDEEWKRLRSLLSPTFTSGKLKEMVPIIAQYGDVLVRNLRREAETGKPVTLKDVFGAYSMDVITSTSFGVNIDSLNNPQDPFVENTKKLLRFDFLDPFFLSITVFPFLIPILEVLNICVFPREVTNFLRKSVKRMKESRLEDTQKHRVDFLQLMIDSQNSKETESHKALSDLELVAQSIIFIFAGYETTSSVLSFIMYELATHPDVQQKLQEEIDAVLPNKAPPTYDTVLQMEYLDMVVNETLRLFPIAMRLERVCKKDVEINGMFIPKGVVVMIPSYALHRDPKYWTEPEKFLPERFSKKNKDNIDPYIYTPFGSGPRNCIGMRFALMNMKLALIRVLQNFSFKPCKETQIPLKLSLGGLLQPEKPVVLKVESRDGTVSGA

[2] = biological target: T2, Cytochrome P450 2J2 (Homo sapiens, UniProt P51589); test: Inhibition of recombinant CYP2J2 (unknown origin) treated with AMG 853; assay type: ADME
T2 sequence (P51589 whole entry): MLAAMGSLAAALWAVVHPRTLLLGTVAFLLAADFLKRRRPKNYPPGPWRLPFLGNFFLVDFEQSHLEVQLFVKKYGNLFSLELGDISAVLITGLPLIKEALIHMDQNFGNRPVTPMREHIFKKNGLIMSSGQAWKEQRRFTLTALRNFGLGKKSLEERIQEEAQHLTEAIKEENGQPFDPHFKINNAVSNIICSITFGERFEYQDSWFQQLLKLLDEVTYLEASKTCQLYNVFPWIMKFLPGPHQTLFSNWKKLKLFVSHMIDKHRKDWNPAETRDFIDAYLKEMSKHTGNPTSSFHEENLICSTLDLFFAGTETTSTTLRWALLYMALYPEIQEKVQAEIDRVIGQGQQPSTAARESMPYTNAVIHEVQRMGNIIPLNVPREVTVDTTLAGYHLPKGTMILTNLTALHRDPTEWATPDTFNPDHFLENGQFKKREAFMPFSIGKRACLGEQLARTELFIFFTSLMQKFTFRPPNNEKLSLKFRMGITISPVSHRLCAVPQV

[3] = biological target: T3, Cytochrome P450 3A7 (Homo sapiens, UniProt P24462); test: Drug metabolism assessed as recombinant CYP3A7 (unknown origin)-mediated compound formation treated with AMG 853 at 10 uM after 30 mins by LC-MS/MS analysis; assay type: ADME; settings: recombinant enzyme, 0.5 h
T3 sequence (P24462 whole entry): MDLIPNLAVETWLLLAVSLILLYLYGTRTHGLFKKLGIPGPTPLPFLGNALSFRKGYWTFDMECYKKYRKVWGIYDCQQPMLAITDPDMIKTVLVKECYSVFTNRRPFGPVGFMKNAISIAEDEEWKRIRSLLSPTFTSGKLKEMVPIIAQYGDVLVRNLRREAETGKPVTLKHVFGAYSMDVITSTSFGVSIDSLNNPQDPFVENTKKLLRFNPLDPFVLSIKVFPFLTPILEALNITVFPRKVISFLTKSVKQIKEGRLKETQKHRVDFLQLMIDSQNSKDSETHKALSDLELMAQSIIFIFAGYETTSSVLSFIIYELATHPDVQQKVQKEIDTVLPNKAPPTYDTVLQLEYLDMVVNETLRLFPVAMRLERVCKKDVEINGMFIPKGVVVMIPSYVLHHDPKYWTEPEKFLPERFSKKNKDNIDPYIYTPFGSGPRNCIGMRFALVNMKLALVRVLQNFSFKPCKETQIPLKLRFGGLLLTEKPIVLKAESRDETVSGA

[4] = Drug metabolism in human liver microsomes assessed as […]-mediated compound formation treated with AMG 853 after 15 mins by LC-MS/MS analysis; assay type: ADME; settings: 0.25 h
[5] = biological target: T2, Cytochrome P450 2J2; test: Drug metabolism assessed as recombinant CYP2J2 (unknown origin)-mediated compound formation treated with AMG 853 at 10 uM after 30 mins by LC-MS/MS analysis; assay type: ADME; settings: recombinant enzyme, 0.5 h
[6] = biological target: T4, Cytochrome P450 3A5 (Homo sapiens, UniProt P20815); test: Drug metabolism assessed as recombinant CYP3A5 (unknown origin)-mediated compound formation treated with AMG 853 at 10 uM after 30 mins by LC-MS/MS analysis; assay type: ADME; settings: recombinant enzyme, 0.5 h
T4 sequence (P20815 whole entry): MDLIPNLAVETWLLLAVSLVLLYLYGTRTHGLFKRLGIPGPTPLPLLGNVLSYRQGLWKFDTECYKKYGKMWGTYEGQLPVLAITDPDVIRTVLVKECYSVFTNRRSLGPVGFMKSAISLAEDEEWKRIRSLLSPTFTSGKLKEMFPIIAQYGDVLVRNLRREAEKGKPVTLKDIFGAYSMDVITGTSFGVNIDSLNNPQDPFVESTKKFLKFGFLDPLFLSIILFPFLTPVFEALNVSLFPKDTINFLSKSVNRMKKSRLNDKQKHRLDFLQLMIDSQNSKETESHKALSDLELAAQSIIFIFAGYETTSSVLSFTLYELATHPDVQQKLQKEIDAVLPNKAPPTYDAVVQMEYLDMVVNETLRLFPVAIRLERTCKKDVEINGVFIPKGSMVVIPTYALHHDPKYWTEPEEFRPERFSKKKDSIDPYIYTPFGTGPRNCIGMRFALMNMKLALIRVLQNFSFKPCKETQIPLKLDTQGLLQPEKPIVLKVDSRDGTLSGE

[7] = biological target: T5, Cytochrome P450 2C8 (Homo sapiens, UniProt P10632); test: Drug metabolism assessed as recombinant CYP2C8 (unknown origin)-mediated compound formation measured per nmol protein treated with AMG 853 after 15 mins by LC-MS/MS analysis; assay type: ADME; settings: recombinant enzyme, 0.25 h
T5 sequence (P10632 whole entry): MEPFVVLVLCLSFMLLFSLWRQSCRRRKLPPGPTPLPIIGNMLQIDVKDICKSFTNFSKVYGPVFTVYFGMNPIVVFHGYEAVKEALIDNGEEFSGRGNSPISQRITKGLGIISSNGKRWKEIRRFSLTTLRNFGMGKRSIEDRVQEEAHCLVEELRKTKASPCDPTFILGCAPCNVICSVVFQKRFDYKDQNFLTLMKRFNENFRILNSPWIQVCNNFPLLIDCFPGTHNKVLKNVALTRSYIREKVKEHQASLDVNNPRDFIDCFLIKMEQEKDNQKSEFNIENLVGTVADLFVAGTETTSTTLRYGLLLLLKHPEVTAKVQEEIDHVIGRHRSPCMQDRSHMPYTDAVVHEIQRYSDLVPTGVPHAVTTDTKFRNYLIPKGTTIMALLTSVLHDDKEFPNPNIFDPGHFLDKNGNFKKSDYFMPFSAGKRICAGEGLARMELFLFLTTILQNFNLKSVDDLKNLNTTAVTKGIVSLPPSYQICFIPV

[8] = biological target: T1, Cytochrome P450 3A4; test: Drug metabolism assessed as recombinant CYP3A4 (unknown origin)-mediated compound formation measured per nmol protein treated with AMG 853 after 15 mins by LC-MS/MS analysis; assay type: ADME; settings: recombinant enzyme, 0.25 h
[9] = biological target: T5, Cytochrome P450 2C8; test: Inhibition of recombinant CYP2C8 (unknown origin) treated with AMG 853; assay type: ADME
[10] = Drug metabolism in human liver microsomes assessed as CYP3A5*1/*1-mediated compound formation treated with AMG 853 after 15 mins by LC-MS/MS analysis; assay type: ADME; settings: 0.25 h
[11] = biological target: T3, Cytochrome P450 3A7; test: Drug metabolism assessed as recombinant CYP3A7 (unknown origin)-mediated compound formation measured per nmol protein treated with AMG 853 after 15 mins by LC-MS/MS analysis; assay type: ADME; settings: recombinant enzyme, 0.25 h
[12] = biological target: T4, Cytochrome P450 3A5; test: Drug metabolism assessed as recombinant CYP3A5 (unknown origin)-mediated compound formation measured per nmol protein treated with AMG 853 after 15 mins by LC-MS/MS analysis; assay type: ADME; settings: recombinant enzyme, 0.25 h
[13] = biological target: T2, Cytochrome P450 2J2; test: Drug metabolism assessed as recombinant CYP2J2 (unknown origin)-mediated compound formation measured per nmol protein treated with AMG 853 after 15 mins by LC-MS/MS analysis; assay type: ADME; settings: recombinant enzyme, 0.25 h
[14] = biological target: T5, Cytochrome P450 2C8; test: Drug metabolism assessed as recombinant CYP2C8 (unknown origin)-mediated compound formation treated with AMG 853 at 10 uM after 30 mins by LC-MS/MS analysis; assay type: ADME; settings: recombinant enzyme, 0.5 h
[15] = biological target: Cytochrome P450 2C19 (Homo sapiens, UniProt P33261); test: Drug metabolism assessed as recombinant CYP2C19 (unknown origin)-mediated compound formation treated with AMG 853 at 10 uM after 30 mins by LC-MS/MS analysis; assay type: ADME; settings: recombinant enzyme, 0.5 h
Sequence of Cytochrome P450 2C19 (P33261 whole entry): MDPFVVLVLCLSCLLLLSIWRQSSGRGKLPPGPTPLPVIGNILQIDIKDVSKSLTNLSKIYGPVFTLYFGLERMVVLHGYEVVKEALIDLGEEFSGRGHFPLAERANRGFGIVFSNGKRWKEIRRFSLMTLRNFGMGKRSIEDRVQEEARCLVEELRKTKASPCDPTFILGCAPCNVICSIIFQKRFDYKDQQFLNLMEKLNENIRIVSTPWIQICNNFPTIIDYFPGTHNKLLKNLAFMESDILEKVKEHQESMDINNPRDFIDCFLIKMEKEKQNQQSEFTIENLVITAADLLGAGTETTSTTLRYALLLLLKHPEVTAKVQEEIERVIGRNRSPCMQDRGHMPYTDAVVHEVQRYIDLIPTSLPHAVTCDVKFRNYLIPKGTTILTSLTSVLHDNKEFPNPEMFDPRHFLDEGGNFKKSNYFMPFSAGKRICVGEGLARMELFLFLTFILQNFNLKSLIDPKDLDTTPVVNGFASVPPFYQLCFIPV

[16] = biological target: CYP1A2 (Homo sapiens, UniProt P05177); test: Induction of CYP1A2 in human hepatocytes using phenacetin as substrate at 0.3 to 30 uM treated every 24 hrs for 2 days measured on day 5 by LC-MS/MS analysis relative to control; assay type: ADME, cell-based, Hepatocyte; settings: probe phenacetin, read-out: FC
Sequence of CYP1A2 (P05177 whole entry): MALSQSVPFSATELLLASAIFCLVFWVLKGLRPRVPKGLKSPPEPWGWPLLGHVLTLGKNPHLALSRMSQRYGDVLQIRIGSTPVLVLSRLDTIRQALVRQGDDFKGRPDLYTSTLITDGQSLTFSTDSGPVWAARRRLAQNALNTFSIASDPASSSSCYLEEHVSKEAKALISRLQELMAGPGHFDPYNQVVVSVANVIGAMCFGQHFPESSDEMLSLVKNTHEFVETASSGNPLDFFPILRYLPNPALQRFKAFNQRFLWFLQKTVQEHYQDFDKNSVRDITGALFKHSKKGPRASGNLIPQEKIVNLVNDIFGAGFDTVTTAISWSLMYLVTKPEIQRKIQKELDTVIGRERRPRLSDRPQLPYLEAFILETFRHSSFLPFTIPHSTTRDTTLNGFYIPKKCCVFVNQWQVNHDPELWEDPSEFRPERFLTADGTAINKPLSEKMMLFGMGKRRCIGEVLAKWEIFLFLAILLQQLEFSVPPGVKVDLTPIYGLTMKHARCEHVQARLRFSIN

[17] = biological target: CYP2B6 (Homo sapiens, UniProt P20813); test: Induction of CYP2B6 in human hepatocytes using bupropion as substrate at 0.3 to 30 uM treated every 24 hrs for 2 days measured on day 5 by LC-MS/MS analysis relative to control; assay type: ADME, cell-based, Hepatocyte; settings: probe bupropion, read-out: FC
Sequence of CYP2B6 (P20813 whole entry): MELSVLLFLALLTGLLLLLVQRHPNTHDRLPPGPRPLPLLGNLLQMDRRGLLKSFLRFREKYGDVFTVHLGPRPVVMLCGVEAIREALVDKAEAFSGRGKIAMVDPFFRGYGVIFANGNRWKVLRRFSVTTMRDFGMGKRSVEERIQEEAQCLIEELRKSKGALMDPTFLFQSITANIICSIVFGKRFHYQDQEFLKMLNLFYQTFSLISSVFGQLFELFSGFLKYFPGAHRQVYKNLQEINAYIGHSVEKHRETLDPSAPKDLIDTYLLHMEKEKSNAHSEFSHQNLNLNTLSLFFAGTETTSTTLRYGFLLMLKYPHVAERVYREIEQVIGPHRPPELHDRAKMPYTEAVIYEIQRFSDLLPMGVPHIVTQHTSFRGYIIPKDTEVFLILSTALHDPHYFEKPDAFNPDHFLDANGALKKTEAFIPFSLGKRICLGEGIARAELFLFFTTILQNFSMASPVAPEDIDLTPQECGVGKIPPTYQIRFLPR

CC(C)(CO)NC(=O)c1ccc(Oc2cc(F)c(CC(=O)O)cc2Cl)c(NS(=O)(=O)c2ccc(C3CC3)cc2Cl)c1
Drug metabolism [1]: metabolite_detected
pKi [2]: 3.62
Drug metabolism [3]: metabolite_detected
Km [4]: 4.11 µM
Vmax [4]: 0.023 nmol/min/mg
Drug metabolism [5]: metabolite_detected
Drug metabolism [6]: metabolite_detected
Vmax [7]: 0.031 nmol/min
Vmax [8]: 0.96 nmol/min
pKi [9]: 4.50
Km [10]: 2.75 µM
Vmax [10]: 0.044 nmol/min/mg
Vmax [11]: 0.26 nmol/min
Vmax [12]: 0.221 nmol/min
Vmax [13]: 0.584 nmol/min
Drug metabolism [14]: metabolite_detected

CC(C)(C)NC(=O)c1ccc(Oc2cc(F)c(CC(=O)O)cc2Cl)c(NS(=O)(=O)c2ccc(C3(O)CC3)cc2Cl)c1
Drug metabolism [1]: metabolite_detected
Drug metabolism [3]: metabolite_detected
Km [4]: 35.2 µM
Vmax [4]: 0.296 nmol/min/mg
Drug metabolism [5]: metabolite_detected
Drug metabolism [6]: metabolite_detected
Vmax [7]: 0.25 nmol/min
Vmax [8]: 1.41 nmol/min
Km [10]: 38.5 µM
Vmax [10]: 0.317 nmol/min/mg
Drug metabolism [15]: metabolite_detected
Vmax [11]: 0.286 nmol/min
Vmax [12]: 1.13 nmol/min
Vmax [13]: 0.299 nmol/min
Drug metabolism [14]: metabolite_detected

COc1ccc2[nH]c([S+]([O-])Cc3ncc(C)c(OC)c3C)nc2c1 (stereo not drawn) [OMEPRAZOLE]
fold induction at 48 h, up to 30 µM [16]: 47.4

CCC1(c2ccccc2)C(=O)NC(=O)NC1=O [PHENOBARBITAL]
fold induction at 48 h, up to 30 µM [17]: 22.1
